{"source": "patent US20220409727A1", "about": "“Metal Complexes Bearing Bisstyryl-Bipyridine Ligand and Their Use as Photosensitizer Agent in One and Two-Photon Photodynamic Therapy” (Paris Sciences et Lettres, priority 2019, published 2022)", "key": {"[1]": {"test_system": "mouse colon carcinoma (CT-26) cells", "experiment": "(Photo-)cytotoxicity on 2D cell monolayers, resazurin assay, CT-26", "conditions": "for PI (480 nm): CT-26, dark vs 480 nm (10 min, 3.1 J/cm^2); for PI (540 nm): CT-26, dark vs 540 nm (40 min, 9.5 J/cm^2); for IC50: compounds 1-3 as chloride salts"}, "[2]": {"experiment": "Singlet oxygen measurement, indirect evaluation (RNO absorbance)", "format": "physicochemical", "conditions": "indirect", "procedure": "For the measurement in CH3CN: The samples were prepared in an air-saturated CH3CN solution containing the complex with an absorbance of 0.2 at the irradiation wavelength, N,N-dimethyl-4-nitrosoaniline aniline (RNO, 24 μM) and imidazole (12 mM). For the measurement in PBS buffer: The samples were prepared in an air-saturated PBS solution containing the complex with an absorbance of 0.1 at the irradiation wavelength, N,N-dimethyl-4-nitrosoaniline aniline (RNO, 20 μM) and histidine (10 mM). The samples were irradiated on 96 well plates with an Atlas Photonics LUMOS BIO irradiator for different times. The absorbance of the samples was measured during these time intervals with a SpectraMax M2 Microplate Reader (Molecular Devices). The difference in absorbance (A0−A) at 420 nm for the CH3CN solution or at 440 nm a PBS buffer solution was calculated and plotted against the irradiation times. From the plot the slope of the linear regression was calculated as well as the absorbance correction factor determined. The singlet oxygen quantum yields were calculated using the same formulas as used for the direct evaluation."}, "[3]": {"experiment": "Singlet oxygen measurement, direct evaluation (1O2 luminescence at 1270 nm)", "format": "physicochemical", "procedure": "The samples were prepared in an air saturated CH3CN or D2O solution with an absorbance of 0.2 at 450 nm. This solution was irradiated in fluorescence quartz cuvettes (width 1 cm) using a mounted M450LP1 LED (Thorlabs) whose irradiation, centered at 450 nm, has been focused with aspheric condenser lenses. The intensity of the irradiation has been varied using a T-Cube LED Driver (Thorlabs) and measured with an optical power and energy meter. The emission signal was focused and collected at right angle to the excitation pathway and directed to a Princeton Instruments Acton SP-2300i monochromator. A longpass glass filter was placed in front of the monochromator entrance slit to cut off light at wavelengths shorter than 850 nm. As a detector an EO-817L IR-sensitive liquid nitrogen cooled germanium diode detector (North Coast Scientific Corp.) has been used. The singlet oxygen luminesce at 1270 nm was measured by recording spectra from 1100 to 1400 nm. For the data analysis, the singlet oxygen luminescence peaks at different irradiation intensities were integrated. The resulting areas were plotted against the percentage of the irradiation intensity and the slope of the linear regression calculated. The absorbance of the sample was corrected with an absorbance correction factor. As reference for the measurement Rose Bengal (Φ=76%) (Kochevar, I. E. and Redmond, R. W., 2000) was used and the singlet oxygen quantum yields were calculated using the following formula:\nΦsample=Φreference*(Ssample/Sreference)*(Ireference/Isample)\nΦ=singlet oxygen quantum yield, S=slope of the linear regression of the plot of the areas of the singlet oxygen luminescence peaks against the irradiation intensity, I=absorbance correction factor, […] of the irradiation source, A=absorbance of the sample at irradiation wavelength."}, "[4]": {"conditions": "read-out: IC50 540 nm (40 min, 9.5 J/cm^2), CT-26, irradiation 540 nm (40 min, 9.5 J/cm^2)"}, "[5]": {"conditions": "read-out: IC50 dark, CT-26, dark, 4 h incubation"}}, "note": "Like-named read-outs stand apart in the source and are kept apart here."}
{"smiles": "CN(C)c1ccc(/C=C/c2ccnc(-c3cc(/C=C/c4ccc(N(C)C)cc4)ccn3)c2)cc1.CN(C)c1ccc(/C=C/c2ccnc(-c3cc(/C=C/c4ccc(N(C)C)cc4)ccn3)c2)cc1.F[P-](F)(F)(F)(F)F.F[P-](F)(F)(F)(F)F.[Ru+2].c1ccc(-c2ccccn2)nc1", "note": "[Compound 4, [Ru(bipy)((E,E′)-4,4′-Bis[p-(N,N-dimethylamino)styryl]-2,2′-bipyridine)2][PF6]2]", "values": [{"measurement": "PI (480 nm)", "setting": "[1]", "value": ">13.7"}, {"measurement": "PI (540 nm)", "setting": "[1]", "value": ">10.4"}, {"measurement": "IC50", "setting": "[1]; [4]", "value": "9.6 ± 1.9", "unit": "µM"}, {"measurement": "IC50", "setting": "[1]; [5]", "value": "> 100", "unit": "µM"}, {"measurement": "Singlet oxygen quantum yield, indirect 450 nm CH3CN", "setting": "[2]", "value": 40, "unit": "%"}, {"measurement": "Singlet oxygen quantum yield, indirect 450 nm PBS", "setting": "[2]", "value": 2, "unit": "%"}, {"measurement": "Singlet oxygen quantum yield, indirect 540 nm CH3CN", "setting": "[2]", "value": 37, "unit": "%"}, {"measurement": "Singlet oxygen quantum yield, indirect 540 nm PBS", "setting": "[2]", "value": 3, "unit": "%"}, {"measurement": "Singlet oxygen quantum yield, direct 450 nm CH3CN", "setting": "[3]", "value": 34, "unit": "%"}]}
{"smiles": "COc1ccc(C=Cc2ccnc(-c3cc(C=Cc4ccc(OC)cc4)ccn3)c2)cc1.F[P-](F)(F)(F)(F)F.F[P-](F)(F)(F)(F)F.[Ru+2].c1ccc(-c2ccnc3c2ccc2c(-c4ccccc4)ccnc23)cc1.c1ccc(-c2ccnc3c2ccc2c(-c4ccccc4)ccnc23)cc1", "note": "[Compound 11, [Ru(4,7-Diphenyl-1,10-phenanthroline)2((E,E′)-4,4′-Bis[p-methoxystyryl]-2,2′-bipyridine)][PF6]2]", "values": [{"measurement": "PI (480 nm)", "setting": "[1]", "value": 17.2}, {"measurement": "PI (540 nm)", "setting": "[1]", "value": 14.3}, {"measurement": "IC50", "setting": "[1]; [4]", "value": "0.6 ± 0.2", "unit": "µM"}, {"measurement": "IC50", "setting": "[1]; [5]", "value": "8.6 ± 0.9", "unit": "µM"}, {"measurement": "Singlet oxygen quantum yield, indirect 450 nm CH3CN", "setting": "[2]", "value": 73, "unit": "%"}, {"measurement": "Singlet oxygen quantum yield, indirect 450 nm PBS", "setting": "[2]", "value": 7, "unit": "%"}, {"measurement": "Singlet oxygen quantum yield, indirect 540 nm CH3CN", "setting": "[2]", "value": 72, "unit": "%"}, {"measurement": "Singlet oxygen quantum yield, indirect 540 nm PBS", "setting": "[2]", "value": 5, "unit": "%"}, {"measurement": "Singlet oxygen quantum yield, direct 450 nm CH3CN", "setting": "[3]", "value": 66, "unit": "%"}]}
{"smiles": "CN(C)c1ccc(/C=C/c2ccnc(-c3cc(/C=C/c4ccc(N(C)C)cc4)ccn3)c2)cc1.F[P-](F)(F)(F)(F)F.F[P-](F)(F)(F)(F)F.[Ru+2].c1ccc(-c2ccccn2)nc1.c1ccc(-c2ccccn2)nc1", "note": "[Compound 6, [Ru(bipy)2((E,E′)-4,4′-Bis[p-(N,N-dimethylamino)styryl]-2,2′-bipyridine)][PF6]2]", "values": [{"measurement": "PI (480 nm)", "setting": "[1]", "value": ">41.7"}, {"measurement": "PI (540 nm)", "setting": "[1]", "value": ">32.3"}, {"measurement": "IC50", "setting": "[1]; [4]", "value": "3.1 ± 0.3", "unit": "µM"}, {"measurement": "IC50", "setting": "[1]; [5]", "value": "> 100", "unit": "µM"}, {"measurement": "Singlet oxygen quantum yield, indirect 450 nm CH3CN", "setting": "[2]", "value": 53, "unit": "%"}, {"measurement": "Singlet oxygen quantum yield, indirect 450 nm PBS", "setting": "[2]", "value": 2, "unit": "%"}, {"measurement": "Singlet oxygen quantum yield, indirect 540 nm CH3CN", "setting": "[2]", "value": 38, "unit": "%"}, {"measurement": "Singlet oxygen quantum yield, indirect 540 nm PBS", "setting": "[2]", "value": 2, "unit": "%"}, {"measurement": "Singlet oxygen quantum yield, direct 450 nm CH3CN", "setting": "[3]", "value": 46, "unit": "%"}]}
{"smiles": "COc1ccc(/C=C/c2ccnc(-c3cc(/C=C/c4ccc(OC)cc4)ccn3)c2)cc1.F[P-](F)(F)(F)(F)F.F[P-](F)(F)(F)(F)F.[Ru+2].c1cnc2c(c1)ccc1cccnc12.c1cnc2c(c1)ccc1cccnc12", "note": "[Compound 9, [Ru(phen)2((E,E′)-4,4′-Bis[p-methoxystyryl]-2,2′-bipyridine)][PF6]2]", "values": [{"measurement": "PI (480 nm)", "setting": "[1]", "value": ">90.9"}, {"measurement": "PI (540 nm)", "setting": "[1]", "value": ">111.1"}, {"measurement": "IC50", "setting": "[1]; [4]", "value": "0.9 ± 0.4", "unit": "µM"}, {"measurement": "IC50", "setting": "[1]; [5]", "value": "> 100", "unit": "µM"}, {"measurement": "Singlet oxygen quantum yield, indirect 450 nm CH3CN", "setting": "[2]", "value": 82, "unit": "%"}, {"measurement": "Singlet oxygen quantum yield, indirect 450 nm PBS", "setting": "[2]", "value": 9, "unit": "%"}, {"measurement": "Singlet oxygen quantum yield, indirect 540 nm CH3CN", "setting": "[2]", "value": 79, "unit": "%"}, {"measurement": "Singlet oxygen quantum yield, indirect 540 nm PBS", "setting": "[2]", "value": 8, "unit": "%"}, {"measurement": "Singlet oxygen quantum yield, direct 450 nm CH3CN", "setting": "[3]", "value": 75, "unit": "%"}]}
{"smiles": "CN(C)c1ccc(/C=C/c2ccnc(-c3cc(/C=C/c4ccc(N(C)C)cc4)ccn3)c2)cc1.F[P-](F)(F)(F)(F)F.F[P-](F)(F)(F)(F)F.[Ru+2].c1cnc2c(c1)ccc1cccnc12.c1cnc2c(c1)ccc1cccnc12", "note": "[Compound 8, [Ru(phen)2((E,E′)-4,4′-Bis[p-(N,N-dimethylamino)styryl]-2,2′-bipyridine)][PF6]2]", "values": [{"measurement": "PI (480 nm)", "setting": "[1]", "value": ">12.2"}, {"measurement": "PI (540 nm)", "setting": "[1]", "value": ">12.8"}, {"measurement": "IC50", "setting": "[1]; [4]", "value": "7.8 ± 0.9", "unit": "µM"}, {"measurement": "IC50", "setting": "[1]; [5]", "value": "> 100", "unit": "µM"}, {"measurement": "Singlet oxygen quantum yield, indirect 450 nm CH3CN", "setting": "[2]", "value": 62, "unit": "%"}, {"measurement": "Singlet oxygen quantum yield, indirect 450 nm PBS", "setting": "[2]", "value": 3, "unit": "%"}, {"measurement": "Singlet oxygen quantum yield, indirect 540 nm CH3CN", "setting": "[2]", "value": 57, "unit": "%"}, {"measurement": "Singlet oxygen quantum yield, indirect 540 nm PBS", "setting": "[2]", "value": 2, "unit": "%"}, {"measurement": "Singlet oxygen quantum yield, direct 450 nm CH3CN", "setting": "[3]", "value": 59, "unit": "%"}]}
{"smiles": "CN(C)c1ccc(/C=C/c2ccnc(-c3cc(/C=C/c4ccc(N(C)C)cc4)ccn3)c2)cc1.F[P-](F)(F)(F)(F)F.F[P-](F)(F)(F)(F)F.[Ru+2].c1ccc(-c2ccnc3c2ccc2c(-c4ccccc4)ccnc23)cc1.c1ccc(-c2ccnc3c2ccc2c(-c4ccccc4)ccnc23)cc1", "note": "[Compound 10, [Ru(4,7-Diphenyl-1,10-phenanthroline)2((E,E′)-4,4′-Bis[p-(N,N-dimethylamino)styryl]-2,2′-bipyridine)][PF6]2]", "values": [{"measurement": "PI (480 nm)", "setting": "[1]", "value": 4.0}, {"measurement": "PI (540 nm)", "setting": "[1]", "value": 4.7}, {"measurement": "IC50", "setting": "[1]; [4]", "value": "1.1 ± 0.4", "unit": "µM"}, {"measurement": "IC50", "setting": "[1]; [5]", "value": "5.2 ± 0.8", "unit": "µM"}, {"measurement": "Singlet oxygen quantum yield, indirect 450 nm CH3CN", "setting": "[2]", "value": 48, "unit": "%"}, {"measurement": "Singlet oxygen quantum yield, indirect 450 nm PBS", "setting": "[2]", "value": 2, "unit": "%"}, {"measurement": "Singlet oxygen quantum yield, indirect 540 nm CH3CN", "setting": "[2]", "value": 43, "unit": "%"}, {"measurement": "Singlet oxygen quantum yield, indirect 540 nm PBS", "setting": "[2]", "value": 2, "unit": "%"}, {"measurement": "Singlet oxygen quantum yield, direct 450 nm CH3CN", "setting": "[3]", "value": 51, "unit": "%"}]}
{"smiles": "COc1ccc(/C=C/c2ccnc(-c3cc(/C=C/c4ccc(OC)cc4)ccn3)c2)cc1.COc1ccc(/C=C/c2ccnc(-c3cc(/C=C/c4ccc(OC)cc4)ccn3)c2)cc1.F[P-](F)(F)(F)(F)F.F[P-](F)(F)(F)(F)F.[Ru+2].c1ccc(-c2ccccn2)nc1", "note": "[Compound 5, [Ru(bipy)((E,E′)-4,4′-Bis[p-methoxystyryl]-2,2′-bipyridine)2][PF6]2]", "values": [{"measurement": "PI (480 nm)", "setting": "[1]", "value": ">19.6"}, {"measurement": "PI (540 nm)", "setting": "[1]", "value": ">16.1"}, {"measurement": "IC50", "setting": "[1]; [4]", "value": "6.2 ± 1", "unit": "µM"}, {"measurement": "IC50", "setting": "[1]; [5]", "value": "> 100", "unit": "µM"}, {"measurement": "Singlet oxygen quantum yield, indirect 450 nm CH3CN", "setting": "[2]", "value": 51, "unit": "%"}, {"measurement": "Singlet oxygen quantum yield, indirect 450 nm PBS", "setting": "[2]", "value": 8, "unit": "%"}, {"measurement": "Singlet oxygen quantum yield, indirect 540 nm CH3CN", "setting": "[2]", "value": 46, "unit": "%"}, {"measurement": "Singlet oxygen quantum yield, indirect 540 nm PBS", "setting": "[2]", "value": 6, "unit": "%"}, {"measurement": "Singlet oxygen quantum yield, direct 450 nm CH3CN", "setting": "[3]", "value": 54, "unit": "%"}]}
